Measured values published in patent publication US12371748B2, “Genetic markers for predicting responsiveness to therapy with HDL-raising or HDL mimicking agent” (Hoffmann-La Roche Inc., priority 2014, dated 2025).

Tested on: patients recently hospitalized for an Acute Coronary Syndrome (ACS)
Assay: dal-OUTCOMES pharmacogenomic study: cardiovascular events by ADCY9 genotype (Cox proportional hazards)
Assay type: in vivo, human
Set-up: key to Responsiveness to treatment: NR = non-responsive; PR = partially responsive; R = responsive
Settings: for HR, dal-OUTCOMES: per copy of minor allele; for Hazard ratio (dal vs placebo): time to events
Description: Dal-OUTCOMES trial (NC20971) was a double blind, randomized, placebo-controlled, parallel group, multi-center, phase III study to assess the safety and efficacy of the CETP inhibitor dalcetrapib in patients recently hospitalized for an Acute Coronary Syndrome (ACS). At time of the interim analysis the study included 15871 randomized patients, distributed over two treatment arms: placebo (7933 patients) and dalcetrapib (600 mg daily; 7938 patients). […] The dal-OUTCOMES study details can be found in G. Schwartz et al., N. Engl. J. Med. 367; 22, 2012.
dal-Outcomes patients were recruited 4 to 12 weeks following hospitalization for acute coronary syndrome characterized by elevated cardiac biomarkers, with symptoms of acute myocardial ischemia, ischemic electrocardiographic abnormalities that were new or presumed to be new, or loss of viable myocardium on imaging. Patients without elevated cardiac biomarkers were eligible to participate if symptoms of acute myocardial ischemia were accompanied by electrocardiographic changes that were new or presumed to be new and by additional evidence of obstructive coronary disease. (Schwartz G G et al. Am Heart J 2009; 158:896-901 e3).
All patients were following individualized programs to target LDL cholesterol levels of 100 mg per deciliter (2.6 mmol per liter) or lower by statin if tolerated and diet. No specific statin agent was specified, and patients were not excluded based on LDL cholesterol values. Patients with serum triglyceride levels of 400 mg per deciliter (4.5 mmol per liter) or higher were excluded. (Schwartz G G et al. N Engl J Med 2012; 367:2089-99) Eligible participants to the dal-Outcomes trial entered a single-blind placebo run-in period of approximately 4 to 6 weeks to allow for patients to stabilise and for completion of planned revascularisation procedures. At the end of the run-in period, eligible patients in stable condition were randomised in a 1:1 ratio to 600 mg of dalcetrapib or placebo on top of evidence-based medical care for acute coronary syndrome. Cardiovascular events were adjudicated by an independent clinical endpoint committee. For the pharmacogenomics study, 6338 patients were recruited from April 2008 through July 2010 at 461 sites in 14 countries and provided written informed consent to participate to the genetic study of the dal-OUTCOMES trial. DNA was extracted from whole blood. Following genomic data cleanup, samples from 5749 Caucasian patients were used for the discovery genome-wide association study (GWAS).
The Illumina Infinium HumanOmni2.5Exome-8v1_A BeadChip including 2,567,845 genetic variants (Illumina, San Diego, California) was used for the discovery GWAS of 5749 Caucasian participants to the dal-OUTCOMES study. The chromosome 16 region including 5 genes upstream and downstream of the adenylate cyclase type 9 (ADCY9) gene (CHR16: 3,400,000-4,600,000) was imputed using IMPUTE2, providing 17,764 variants for analysis with an average completion rate of 99.76%. A Sequenom panel was used for the confirmation of imputed single nucleotide polymorphisms (SNPs) in the ADCY9 gene identified in dal-OUTCOMES and were tested in the dal-PLAQUE-2 study, including 20 SNPs with P values<0.05 from the discovery GWAS.
Genome-wide association study (GWAS)—Genome-wide genotyping was performed using 200 ng of genomic DNA in GLP-environment at the Beaulieu-Saucier Pharmacogenomics Centre (Montreal, Canada). The Illumina Infinium HumanOmni2.5Exome-8v1_A BeadChip (Illumina, San Diego, CA) including 2,567,845 genomic markers was used and processed according to the manufacturer's specifications. This chip includes over 200,000 exome variants identified through the Exome Chip Consortium. The remaining BeadChip content is a mix of rare and common SNPs from the 1000 Genome Project designed to be maximally informative for diverse world populations. Each BeadChip was scanned and analyzed using the Illumina iScan Reader. […]

CCC(CC)CC1(C(=O)Nc2ccccc2SC(=O)C(C)C)CCCCC1 [dalcetrapib, thioisobutyric acid S-(2-{[1-(2-ethyl-butyl)-cyclohexanecarbonyl]-amino}-phenyl) ester]
HR, association of rs2238448 with events in dal-OUTCOMES (dalcetrapib arm, genetic effect): 0.67
Patients with events (dalcetrapib arm, rs1967309 AA): 38
Patients without events (dalcetrapib arm, rs1967309 AA): 447
Patients with events (dalcetrapib arm, rs1967309 AG): 176
Patients without events (dalcetrapib arm, rs1967309 AG): 1203
Patients with events (dalcetrapib arm, rs1967309 GG): 176
Patients without events (dalcetrapib arm, rs1967309 GG): 802
HR, dal-OUTCOMES (rs1967309, Cox additive genetic model): 0.651
HR, dalcetrapib compared to placebo, coronary revascularizations removed from the endpoint (rs1967309 AA): 0.60
Responsiveness to treatment (rs1967309 AA): R
reduction in pre-specified composite endpoint with dalcetrapib compared to placebo (rs1967309 AA (n=961)): 39%
HR, composite endpoint, dalcetrapib compared to placebo (rs1967309 AA (n=961), discovery cohort): 0.61
Hazard ratio (dal vs placebo) (rs1967309 AA): 0.625
Responsiveness to treatment (rs1967309 AG): PR
Hazard ratio (dal vs placebo) (rs1967309 AG): 0.953
Responsiveness to treatment (rs1967309 GG): NR
increase in cardiovascular events, dalcetrapib versus placebo (rs1967309 GG (n=1984)): 27%
HR, cardiovascular events, dalcetrapib versus placebo (rs1967309 GG (n=1984), discovery cohort): 1.27
Hazard ratio (dal vs placebo) (rs1967309 GG): 1.248
response to dalcetrapib in words (rs1967309 heterozygous AG): intermediate response
HR, cardiovascular events, dalcetrapib versus placebo (rs1967309 heterozygous AG (n=2796), discovery cohort): 0.94
HR, dal-OUTCOMES (rs2238448, Cox additive genetic model): 0.671
Responsiveness to treatment (rs2238448 CC): NR
Hazard ratio (dal vs placebo) (rs2238448 CC): 1.291
Responsiveness to treatment (rs2238448 CT): PR
Hazard ratio (dal vs placebo) (rs2238448 CT): 0.974
Responsiveness to treatment (rs2238448 TT): R
Hazard ratio (dal vs placebo) (rs2238448 TT): 0.657
HR, dal-OUTCOMES (rs2239310, Cox additive genetic model): 0.674
Responsiveness to treatment (rs2239310 AA): NR
Hazard ratio (dal vs placebo) (rs2239310 AA): 1.150
Responsiveness to treatment (rs2239310 AG): PR
Hazard ratio (dal vs placebo) (rs2239310 AG): 0.971
Responsiveness to treatment (rs2239310 GG): R
Hazard ratio (dal vs placebo) (rs2239310 GG): 0.623
HR, dal-OUTCOMES (rs2283497, Cox additive genetic model): 0.766
Responsiveness to treatment (rs2283497 GG): NR
Hazard ratio (dal vs placebo) (rs2283497 GG): 1.226
Responsiveness to treatment (rs2283497 GT): PR
Hazard ratio (dal vs placebo) (rs2283497 GT): 0.999
Responsiveness to treatment (rs2283497 TT): R
Hazard ratio (dal vs placebo) (rs2283497 TT): 0.581
HR, dal-OUTCOMES (rs2531967, Cox additive genetic model): 0.734
Responsiveness to treatment (rs2531967 AA): R
Hazard ratio (dal vs placebo) (rs2531967 AA): 0.786
Responsiveness to treatment (rs2531967 AG): PR
Hazard ratio (dal vs placebo) (rs2531967 AG): 0.855
Responsiveness to treatment (rs2531967 GG): NR
Hazard ratio (dal vs placebo) (rs2531967 GG): 1.121
HR, dal-OUTCOMES (rs2531971, Cox additive genetic model): 0.664
Responsiveness to treatment (rs2531971 AA): R
Hazard ratio (dal vs placebo) (rs2531971 AA): 0.660
Responsiveness to treatment (rs2531971 AC): PR
Hazard ratio (dal vs placebo) (rs2531971 AC): 0.965
Responsiveness to treatment (rs2531971 CC): NR
Hazard ratio (dal vs placebo) (rs2531971 CC): 1.254
HR, dal-OUTCOMES (rs3730119, Cox additive genetic model): 0.763
Responsiveness to treatment (rs3730119 AA): R
Hazard ratio (dal vs placebo) (rs3730119 AA): 0.472
Responsiveness to treatment (rs3730119 AG): PR
Hazard ratio (dal vs placebo) (rs3730119 AG): 0.887
Responsiveness to treatment (rs3730119 GG): NR
Hazard ratio (dal vs placebo) (rs3730119 GG): 1.059
HR, dal-OUTCOMES (rs4786454, Cox additive genetic model): 0.668
Responsiveness to treatment (rs4786454 AA): R
Hazard ratio (dal vs placebo) (rs4786454 AA): 0.573
Responsiveness to treatment (rs4786454 AG): PR
Hazard ratio (dal vs placebo) (rs4786454 AG): 0.91
Responsiveness to treatment (rs4786454 GG): NR
Hazard ratio (dal vs placebo) (rs4786454 GG): 1.062
HR, dal-OUTCOMES (rs8049452, Cox additive genetic model): 1.413
Responsiveness to treatment (rs8049452 CC): R
Hazard ratio (dal vs placebo) (rs8049452 CC): 0.804
Responsiveness to treatment (rs8049452 CT): PR
Hazard ratio (dal vs placebo) (rs8049452 CT): 0.971
Responsiveness to treatment (rs8049452 TT): NR
Hazard ratio (dal vs placebo) (rs8049452 TT): 1.543
HR, dal-OUTCOMES (rs8061182, Cox additive genetic model): 1.343
